These are literature values, as cited in US6737381B1, “Phytosanitary composition comprising at least a water soluble agent and a modified oil” (Institut National de la Recherche Agronomique, priority 1999, dated 2004).

Molecules are shown by their SMILES. Some results are limits rather than exact numbers.

For this data set the following is noted: hydrophilic herbicide.

What is called log P is the decadic logarithm of the partition coefficient of the neutral form, usually between octanol and water. On to `O=C(O)CNCP(=O)(O)O` [glyphosate, N-(phosphonomethyl)glycine], for which the “log P” value is given as less than −3.4.
